Data reported in patent US20240262795A1, “PYRAZINE COMPOUNDS AS INHIBITORS OF FLT3” (Biomea Fusion, Inc., priority 2021, published 2024).

Assays:
MOLM-13 = assay: Proliferation inhibition, CellTiter-Glo, MOLM-13; assay type: cell-based, human; settings: Homo sapiens, 96 h; MOLM-13 cells, IC50 (4 days), CellTiter-Glo; read-out: MOLM-13 IC50
Summary of the method: (§1)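 About 10,000 cells per well in RPMI-1640 with 10% FBS. Compounds added 2 h after seeding at eight concentrations in duplicate (0.2% DMSO as 100% proliferation), then incubated ~96 h at 37° C, 5% CO2. ATP measured by CellTiter-Glo luminescence; IC50 from four-parameter logistic fit.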

WT FLT3 = molecular target: T1, WT FLT3 (Homo sapiens, UniProt P36888); assay: WT FLT3 Lance Ultra TR-FRET kinase assay; assay type: biochemical
T1 construct: purchased Invitrogen PR4666C
T1 sequence (P36888 564-993 limits assumed): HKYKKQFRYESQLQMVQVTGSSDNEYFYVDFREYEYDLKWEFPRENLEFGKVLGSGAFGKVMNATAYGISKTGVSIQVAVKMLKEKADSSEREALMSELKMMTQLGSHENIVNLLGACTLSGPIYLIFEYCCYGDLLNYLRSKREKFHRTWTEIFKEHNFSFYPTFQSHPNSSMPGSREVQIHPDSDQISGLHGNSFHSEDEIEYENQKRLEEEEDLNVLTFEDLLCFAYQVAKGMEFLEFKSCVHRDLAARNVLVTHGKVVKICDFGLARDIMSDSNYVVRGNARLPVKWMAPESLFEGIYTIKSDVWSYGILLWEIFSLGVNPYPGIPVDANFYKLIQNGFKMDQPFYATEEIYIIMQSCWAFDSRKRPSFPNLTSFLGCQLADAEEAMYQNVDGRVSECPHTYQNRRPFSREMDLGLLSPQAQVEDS
Description: (§2) High throughput 384-well Lance Ultra TR-FRET based kinase assays were established for the WT FLT3 and FLT3-ITD enzymes and employed a ULight-labeled peptide […] and FLT3 proteins labelled with Eu-conjugated antibody […] (WuXi Aptec). The principle of TR-FRET is based on transfer of energy between a donor and acceptor fluorophore that results when the fluorophores are within close proximity (˜100 Å) of each other. Recombinant WT FLT3 (#PR4666C, M.W. 48.6 kDa) was purchased from Invitrogen and FLT3-ITD (FLT3-ITD-W51, #F-12-12CG-10, M.W. 76 kDa) was purchased from Signalchem. Optimal assay conditions for the WT FLT3 enzyme assay were as follows: 0.5 nM FLT3 protein, 50 nM ULight-JAK-1 (Tyr1023) substrate peptide (PerkinElmer #TRF0121), 100 μM ATP, 60 min reaction time. Optimal assay conditions for the FLT3-ITD enzyme assay were as follows: 0.0625 nM FLT3-ITD protein, 50 nM ULight-JAK-1 (Tyr1023) substrate peptide, 50 μM ATP, 90 min reaction time. Briefly, 11 dose 3× serial dilutions were prepared for the test compounds and the reference compound and 100 nanoliters transferred to appropriate wells of 384-well assay plates. Five microliters of 2× enzyme/peptide were added into assay wells, assay plates centrifuged at 1000 rpm for about 30 seconds, sealed with sealing film and incubated for 30 min at 23° C. Assay buffer comprised 50 mM HEPES (pH 7.5), 1 mM EDTA, 0.01% Brij-35, 10 mM MgCl2 and 2 mM DTT. Next 5 μl of a 2× ATP mixture were added into the assay wells and the plates centrifuged at 1000 rpm about 30 seconds, sealed with sealing film and incubated for 23° C. for appropriate duration. Following assay incubation (30 min for WT FLT3 and 60 min for FLT3-ITD) 10 μl 2× Detection Mixture (Eu-W1024 Anti-phosphotyrosine (PT66) 2 nM and EDTA 10 mM) was added to assay wells, assay plates centrifuge at 1000 rpm about 1 minutes, sealed with sealing film and incubated at 23° C. for 60 minutes. Assay plates were read on a Perkin Elmer Envision reader at two wavelengths (665/615) and the ratio of […] calculated.
(§3) Data was expressed as % of inhibition relative to the vehicle control and calculated as follows:
(§4) Results were analyzed by XLFIT5 as % inhibition vs. log [compound concentration] and IC50 values were calculated by non-linear regression using four parameter-logistic equation. Fit=(A+((B−A)/(1+((C/x)^D)))). Res=(y−fit).

K-562 = assay: Proliferation inhibition, CellTiter-Glo, K-562; assay type: cell-based, human; settings: Homo sapiens, K562, 96 h; K-562 cells, IC50 (4 days), CellTiter-Glo; read-out: K-562 IC50
Summary of the method: as §1

FLT3-ITD = molecular target: T2, FLT3-ITD (Homo sapiens, UniProt P36888, DUP595-601); assay: FLT3-ITD Lance Ultra TR-FRET kinase assay; assay type: biochemical
T2 construct: purchased Signalchem F-12-12CG-10
T2 sequence (P36888 with tags, fused parts or gaps DUP595-601 limits assumed): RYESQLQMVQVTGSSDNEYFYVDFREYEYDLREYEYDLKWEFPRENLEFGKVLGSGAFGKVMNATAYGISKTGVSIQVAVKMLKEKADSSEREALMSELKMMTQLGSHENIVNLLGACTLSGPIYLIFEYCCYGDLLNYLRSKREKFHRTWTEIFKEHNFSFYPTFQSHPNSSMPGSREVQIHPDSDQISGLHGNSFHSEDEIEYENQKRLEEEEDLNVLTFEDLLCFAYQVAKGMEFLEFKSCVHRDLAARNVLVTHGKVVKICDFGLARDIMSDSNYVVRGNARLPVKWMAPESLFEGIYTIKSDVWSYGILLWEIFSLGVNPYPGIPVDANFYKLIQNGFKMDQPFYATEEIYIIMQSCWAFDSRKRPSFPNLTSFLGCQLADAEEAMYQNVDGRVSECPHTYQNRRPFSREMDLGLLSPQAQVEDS
Description: as §2, §3, §4

MV-4-11 = assay: Proliferation inhibition, CellTiter-Glo, MV-4-11; assay type: cell-based, human; settings: Homo sapiens, MV4-11, 96 h; MV-4:11 cells, IC50 (4 days), CellTiter-Glo; read-out: MV-4:11 IC50
Summary of the method: as §1

Row | SMILES | IC50 (MOLM-13) [nM] | IC50 (WT FLT3) [nM] | IC50 (K-562) [nM] | IC50 (FLT3-ITD) [nM] | IC50 (MV-4-11) [nM]
1 | CCc1nc(C(N)=O)c(Nc2cccc([C@@H](C)CNC(=O)CN(C)C(=O)/C=C/CN3CCC3)c2)nc1C(C)C [Compound 509, (R,E)-3-((3-(1-(2-(4-(azetidin-1-yl)-N-methylbut-2-enamido)acetamido)propan-2-yl)phenyl)amino)-6-ethyl-5-isopropylpyrazine-2-carboxamide] | < 1 | 0.201 to 0.5 | > 500 | 0.501 to 1 | 1 to 10
2 | C=CC(=O)N(C)CC(=O)NC[C@H](C)c1cccc(Nc2nc(N(C)CC)c(CC)nc2C(N)=O)c1 [Compound 513, (R)-6-ethyl-5-(ethyl (methyl)amino)-3-((3-(1-(2-(N-methylacrylamido)acetamido)propan-2-yl)phenyl)amino) pyrazine-2-carboxamide] | 1 to 10 | 0.501 to 1 | > 500 | 0.201 to 0.5 | 10 to 100
3 | C=CC(=O)N(C)CC(=O)NCCc1cc(Nc2nc(N(C)CC)c(CC)nc2C(N)=O)ccn1 [Compound 515, 6-ethyl-5-(ethyl(methyl)amino)-3-((2-(2-(2-(N-methylacrylamido)acetamido)ethyl)pyridin-4-yl)amino) pyrazine-2-carboxamide] | 1 to 10 | 0.501 to 1 | > 500 | 0.101 to 0.2 | < 1
4 | CCc1nc(C(N)=O)c(Nc2cccc([C@@H](C)CNC(=O)CN(C)C(=O)/C=C/CN3CCC3)c2)nc1CC(C)C [Compound 517, (R, E)-3-((3-(1-(2-(4-(azetidin-1-yl)-N-methylbut-2-enamido)acetamido)propan-2-yl)phenyl)amino)-6-ethyl-5-isobutylpyrazine-2-carboxamide] | 1 to 10 | 0.501 to 1 | > 500 | 0.501 to 1 | 1 to 10
5 | CCc1nc(Nc2cccc([C@H](C)CNC(=O)CN(C)C(=O)/C=C/CN3CCC3)c2)c(C(N)=O)nc1CC [Compound 519, (S,E)-3-((3-(1-(2-(4-(azetidin-1-yl)-N-methylbut-2-enamido)acetamido)propan-2-yl)phenyl)amino)-5,6-diethylpyrazine-2-carboxamide] | 10 to 100 | > 1 | > 500 | > 1 | 1 to 10
6 | CCc1nc(C(N)=O)c(Nc2ccnc(CCNC(=O)CN(C)C(=O)/C=C/CN3CCC3)c2)nc1C1CC1 [Compound 520, (E)-3-((2-(2-(2-(4-(azetidin-1-yl)-N-methylbut-2-enamido)acetamido)ethyl)pyridin-4-yl)amino)-5-cyclopropyl-6-ethylpyrazine-2-carboxamide] | 1 to 10 | > 1 | > 500 | 0.501 to 1 | 1 to 10
7 | CCc1nc(C(N)=O)c(Nc2cccc(CCNC(=O)CN(C)C(=O)/C=C/CN3CCC3)c2)nc1CC(C)C [Compound 601, (E)-3-((3-(2-(2-(4-(azetidin-1-yl)-N-methylbut-2-enamido)acetamido)ethyl)phenyl)amino)-6-ethyl-5-isobutylpyrazine-2-carboxamide] | 1 to 10 | > 1 | > 500 | 0.501 to 1 | < 1
8 | CCc1nc(C(N)=O)c(Nc2ccnc(CCNC(=O)CN(C)C(=O)/C=C/CN(C)C)c2)nc1N(C)CC [Compound 606, (E)-3-((2-(2-(2-(4-(dimethylamino)-N-methylbut-2-enamido)acetamido)ethyl)pyridin-4-yl)amino)-6-ethyl-5-(ethyl(methyl)amino)pyrazine-2-carboxamide] | 1 to 10 | 0.501 to 1 | > 500 | 0.201 to 0.5 | < 1

Further lines, results first:

Row | IC50 (MOLM-13) [nM] | IC50 (WT FLT3) [nM] | IC50 (K-562) [nM] | IC50 (FLT3-ITD) [nM] | IC50 (MV-4-11) [nM] | SMILES
9 | < 1 | 0.501 to 1 | > 500 | 0.501 to 1 | < 1 | CCc1nc(C(N)=O)c(Nc2cccc(CCNC(=O)[C@H](C)NC(=O)/C=C/CN(C)C)c2)nc1NC(C)C [Compound 501, (S, E)-3-((3-(2-(2-(4-(dimethylamino)but-2-enamido)propanamido)ethyl)phenyl)amino)-6-ethyl-5-(isopropylamino) pyrazine-2-carboxamide]
10 | < 1 | 0.101 to 0.2 | > 500 | 0.201 to 0.5 | < 1 | CCc1nc(C(N)=O)c(Nc2cccc(CCNC(=O)[C@H](C)NC(=O)/C=C/CN(C)C)c2)nc1N(C)C(C)C [Compound 502, (S,E)-3-((3-(2-(2-(4-(dimethylamino)but-2-enamido)propanamido)ethyl)phenyl)amino)-6-ethyl-5-(isopropyl(methyl)amino) pyrazine-2-carboxamide]
11 | < 1 | 0.201 to 0.5 | > 500 | 0.501 to 1 | < 1 | CCc1nc(Nc2cccc([C@@H](C)CNC(=O)CN(C)C(=O)/C=C/CN(C)C)c2)c(C(N)=O)nc1CC [Compound 503, (R, E)-3-((3-(1-(2-(4-(dimethylamino)-N-methylbut-2-enamido)acetamido)propan-2-yl)phenyl)amino)-5,6-diethylpyrazine-2-carboxamide]
12 | 10 to 100 | > 1 | > 500 | > 1 | 10 to 100 | C=CC(=O)N(C)CC(=O)NCCc1cccc(Nc2nc(CC(C)C)c(CC)nc2C(N)=O)c1 [Compound 510, 6-ethyl-5-isobutyl-3-((3-(2-(2-(N-methylacrylamido)acetamido)ethyl)phenyl)amino) pyrazine-2-carboxamide]
13 | < 1 | 0.201 to 0.5 | > 500 | ≤ 0.1 | 1 to 10 | C=CC(=O)N(C)CC(=O)NCCc1cccc(Nc2nc(N(C)CC)c(CC)nc2C(N)=O)c1 [Compound 511, 6-ethyl-5-(ethyl(methyl)amino)-3-((3-(2-(2-(N-methylacrylamido)acetamido)ethyl)phenyl)amino) pyrazine-2-carboxamide]
